Test results taken from US12643887B2, “Heterocyclic derivatives with cardiomyocyte proliferation activity for treatment of heart diseases” (Tongji University, priority 2019, dated 2026).
pIC50: −log10 of the molar value.

Experiments:
[1] = system: Neonatal Rat Ventricular Myocytes (NRVMs); test: Myocyte proliferation assay (EdU assay) in neonatal rat ventricular myocytes; type: cell-based; settings: growth relative to blank myocyte growth without compound added; for Avg 1 uM (average myocyte proliferation): compound 1 uM; for Avg 3 uM (average myocyte proliferation): compound 3 uM
In short: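 Neonatal rat ventricular myocytes, fibroblast-depleted by preplating, serum-starved 24 h (2% FBS/ITS), then given compound at 10, 3 or 1 uM in 6% FBS medium for 36 h before 12 h EdU labelling. Fixed cells stained for EdU (Click-iT), ab8295 primary antibody and DAPI; quantified by high-content confocal imaging.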

human HIPK1 = molecular target: T1, human HIPK1 (Homo sapiens, UniProt Q86Z02); test: HIPK1 enzyme assay (ADP-Glo); type: biochemical; settings: ADP-Glo, ATP 5 μM; read-out: HIPK1 IC50
T1 construct: Recombinant human HIPK1 (156-555); GST (N); purchased SignalChem H03-11G; host or cells: Sf9 insect cells
In short: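 Recombinant GST-tagged HIPK1 (156-555, Sf9), 4 nM, preincubated 30 min at 25° C with compound in Tris pH 7.5/MgCl2/BSA/DTT, then reacted 90 min with 0.05 mg/ml MBP and 5 μM ATP. ADP formed read by ADP-Glo luminescence; IC50 from four-parameter logistic fit of % inhibition versus Max/Min controls.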

T1 sequence (Q86Z02 156-555): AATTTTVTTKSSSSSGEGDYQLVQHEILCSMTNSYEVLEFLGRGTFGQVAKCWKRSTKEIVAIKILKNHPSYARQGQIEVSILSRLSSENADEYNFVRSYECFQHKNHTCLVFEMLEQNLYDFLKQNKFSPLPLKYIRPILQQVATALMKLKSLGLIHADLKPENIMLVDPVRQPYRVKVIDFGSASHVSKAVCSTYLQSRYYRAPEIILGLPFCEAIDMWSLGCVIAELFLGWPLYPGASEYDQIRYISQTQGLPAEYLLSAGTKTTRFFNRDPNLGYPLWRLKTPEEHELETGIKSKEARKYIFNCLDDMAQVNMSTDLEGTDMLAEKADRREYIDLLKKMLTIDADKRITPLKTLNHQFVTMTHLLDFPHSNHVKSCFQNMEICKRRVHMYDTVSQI

Row | Structure (SMILES) | Avg 1 uM (average myocyte proliferation) [1] | Avg 3 uM (average myocyte proliferation) [1] | pIC50 (human HIPK1)
1 | O=C1NC(Nc2ccc3ncsc3c2)=NC1Cc1ccc2ncsc2c1 (stereo not drawn) [Example 102, 2-(benzo[d]thiazol-6-ylamino)-5-(benzo[d]thiazol-6-ylmethyl)-3,5-dihydro-4H-imidazol-4-one] | * (<10% growth relative to blank myocyte growth without compound added.) | ** (10%-50%) | 6.00 to 7.00
2 | NC1=N/C(=C\c2ccc3ncsc3c2)C(=O)N1 [Example 103, (Z)-2-amino-5-(benzo[d]thiazol-6-ylmethylene)-3,5-dihydro-4H-imidazol-4-one] | ** (10%-50%) | ** (10%-50%) | 6.00 to 7.00
3 | O=C1NC(Nc2ccc3nc(Nc4ccccc4)sc3c2)=N/C1=C\c1ccc2ncsc2c1 [Example 104, (Z)-5-(benzo[d]thiazol-6-ylmethylene)-2-((2-(phenylamino)benzo[d]thiazol-6-yl)amino)-3,5-dihydro-4H-imidazol-4-one] | * (<10% growth relative to blank myocyte growth without compound added.) | ** (10%-50%) | < 5.00
4 | O=C1NC(N(CC2CC2)c2ccc3ncsc3c2)=N/C1=C\c1ccc2ncsc2c1 [Example 105, (Z)-2-(benzo[d]thiazol-6-yl(cyclopropylmethyl)amino)-5-(benzo[d]thiazol-6-ylmethylene)-3,5-dihydro-4H-imidazol-4-one] | ** (10%-50%) | ** (10%-50%) | < 5.00
